# Data published in patent publication US20260317367A1, “SALTS INCLUDING CRYSTALLINE SALTS OF 25-HYDROXY-CHOLEST-5-EN-3-SULFATE AND METHODS FOR PREPARING SAME” (Durect Corporation, priority 2022, published 2026).
# Structures can show the parent of a compound that is named as a salt.
# How the values were obtained:
# Type in all cases: physicochemical
# [1] = Solubility of 25HC3S salts after one day at room temperature (HPLC, as free acid); details: one day; for Solubility in methanol (in words): MeOH
# Method: These fluids were prepared per the instruction listed by Biorelevant (Biorelevant.com). Each buffer concentrate was diluted with water and mixed well. FaSSIF, FeSSIF, FaSSGF powder was added to each buffer and mixed to completely dissolve the powder. Buffers were stored at room temperature and used within 48 hours of preparation.
# 25HC3S salts were weighed in 8 mL or 4 mL glass vials with Teflon coated screw caps. Aliquots of each solvent were added to each sample and vortexed for about one minute until excess solid remained. Samples were placed on shaker at room temperature with 210 motion per minute shaking.
# After one day, samples were pulled and checked if excess solid was present. About 1.5 mL aliquot of each sample was centrifuged at 12000 rpm for 12 to 15 minutes. […] Aliquots of the top clear solution of each centrifuged sample in MeOH, EtOH, IPA and ACN were diluted with diluent (water:MeOH 95:5) and assayed by HPLC. Samples of the salts in aqueous media were assayed by HPLC without dilution.
# All solubility sample solutions of 25HC3S salts were determined using HPLC. A linear standard curve was constructed using standards with concentration between 11 μg/mL to 1.5 mg/mL as free acid forcing the curve to origin. Solubilities are reported as mg/mL free acid 25HC3S. Detection limit (LOD) of the HPLC method was calculated as 0.0007 mg/mL.
# [2] = Overall rank order of powder flowability (angle of repose and Hausner ratio); details: for Powder flowability, overall (in words): angle of repose and compressibility index/Hausner ratio combined; for Angle of Repose Rank Order / Hausner Ratio Rank Order / Overall Rank Order (Total Score): lower is better flow; for Overall Rank Order (Total Score): sum of both ranks
# Source text: Table C5 was generated by adding the relative rank order of the 25HC3S salts for angle of repose and Hausner ratio results, and creating an Over All Rank Order of the salts powder flowability. The salts with the lower overall rank order score had better powder flowability.
# [3] = Hausner ratio and compressibility index of 25HC3S salts; details: for Compressibility Index: Table C3 heads this index in %
# Method: Although there are some variations in the method of determining the compressibility index and Hausner ratio, the basic procedure is to measure the unsettled apparent volume, VO, and the final tapped volume, Vf, of the powder after tapping the material until no further volume changes occur. The compressibility index and the Hausner ratio are calculated as follows: […]
# Both the Hausner ratio and the compressibility index are empirically established. The Hausner ratio and compressibility index are not absolute properties of a material; its value can vary depending on the methodology used to determine them. In this case, since the 14 salts of 25HC3S were measured the same way, the relative values should be accurate.
# Table C3, from USP <1174> Powder Flow, describes the flow character of the powder based on the compressibility index and Hausner ratio values.
# Powder was carefully poured into a 5 mL glass graduated cylinder (to contain) until it was close to or at 5.0 mL. This initial volume was recorded as Vo. The graduated cylinder was tapped on a hard surface for 200 times and the volume was recorded. The cylinder was tapped 100 times more, and the final volume Vf was recorded. Typically, the volume after 200 taps was identical to after 300 taps, or within 0.1 mL.
# [4] = Differential scanning calorimetry (DSC), thermal decomposition / endothermic transition; details: for Decomposition temperature (DSC): 10° C./min
# Method: Differential scanning calorimetry (DSC) is a thermoanalytical technique where the difference in the amount of heat required to increase the temperature of a sample and reference is measured as a function of temperature. Using this technique, phase transitions of a sample can be measured such as melting point. Decomposition can also be observed by DSC as can dehydration events. In the context of DSC measurements, there is also variability and the term “about” means ±1° C., and such variability is to be understood whether a DSC measurement is prefaced by “about” or not unless specified otherwise. Exemplary methods for collecting DSC data are set forth in Example 21. Thermogravimetric analysis, sometimes referred to as, thermal gravimetric analysis (TGA) is a thermal method of thermal analysis where the mass of a sample is measured as a function of time as the sample temperature changes. For example, when samples disclosed herein are heated and a loss in mass is measured prior to decomposition, this is likely indicative of the loss of water from the sample and may indicate that the sample being heated is a hydrate. Exemplary methods for collecting TGA are set forth in Example 23.
# DSC was performed using a Mettler-Toledo DSC3+ differential scanning calorimeter. A tau lag adjustment is performed with indium, tin, and zinc. The temperature and enthalpy are adjusted with octane, phenyl salicylate, indium, tin and zinc. The adjustment is then verified with octane, phenyl salicylate, indium, tin, and zinc. The sample was placed into a hermetically sealed aluminum DSC pan, and the weight was accurately recorded. The pan was then inserted into the DSC cell. A weighed aluminum pan configured as the sample pan was placed on the reference side of the cell. The pan lid was pierced prior to sample analysis. Samples were analyzed from 30° C. to 350° C. or 30° C. to 250° C., both at 10° C./min.
# [5] = Dynamic vapor sorption (DVS), hygroscopicity; details: DVS, listed as crystalline 25HC3S potassium
# Source text: Dynamic vapor sorption (DVS) measures the uptake of a vapor (typically water) by a sample when exposed to a changing relative humidity. The loss of water can also be measured as relative humidity is decreased. Hygroscopic materials tend to absorb water more readily than non-hygroscopic. In some cases, hydrates absorb water to create higher-order hydrates (e.g., a monohydrate converting to a dihydrate when exposed to increasingly humid conditions). In some salts of the disclosure, moisture is retained upon exposure in a DVS experiment and little or no weight loss is observed upon heating from room temperature. In such experiments, the hygroscopic nature of the salt under study may indicate the formation of a hydrate from an anhydrate. […] Exemplary methods for collecting DVS data are set forth in Example 26.
# Dynamic vapor sorption data was collected on a Surface Measurement System DVS Intrinsic instrument. The samples were not dried prior to analysis. Sorption and desorption data were collected over a range from 5% to 95% RH in 10% RH increments under a nitrogen purge. The equilibrium criteria used for the analyses were 0.001 dm/dt weight change in 5 minutes with a minimum step time of 30 minutes and maximum equilibration time of 180 minutes with a 3 minute data logging interval. Data were not corrected for the initial moisture content of the sample.
# [6] = room temperature, listed as crystalline 25HC3S hydroxyethylpyrrolidinium
# [7] = listed as 25HC3S hydroxyethylpyrrolidinium
# [8] = room temperature, listed as crystalline 25HC3S magnesium
smiles,measurement,setting,value
CC(CCCC(C)(C)O)C1CCC2C3CC=C4CC(OS(=O)(=O)O)CCC4(C)C3CCC12C (centres unmarked) [Salt #1],Solubility in FaSSGF (in words),"[1]; FaSSGF, room temperature, listed as crystalline 25HC3S potassium",low solubility
same,Solubility in FaSSGF,"[1]; Fasted State Simulated Gastric Fluid, pH 1.6, room temperature, as free acid, LOD 0.0007 mg/mL, 1440 min",2 µg/mL
same,Solubility in saline / 0.9% sodium chloride (in words),"[1]; room temperature, listed as crystalline 25HC3S potassium",low solubility
same,"Powder flowability, overall (in words)",[2]; listed as potassium,top three
same,Angle of Repose Rank Order,[2]; listed as 25HC3S potassium,6
same,Hausner Ratio Rank Order,[2]; listed as 25HC3S potassium,3
same,Overall Rank Order (Total Score),[2]; listed as 25HC3S potassium,9
same,Compressibility Index,[3]; listed as 25HC3S potassium,26
same,Hausner Ratio,[3]; listed as 25HC3S potassium,1.35
same,Decomposition temperature (DSC),[4]; listed as crystalline 25HC3S potassium,198 °C
same,First significant endothermic transition (DSC),"[4]; indicative of thermal degradation or solid-state transformation, listed as potassium",~198 °C
same,Water uptake (weight gain) up to about 95% relative humidity,[5]; 5% to about 95% RH,2%
same,Hygroscopicity (in words),[5],limited hygroscopicity
CC(CCCC(C)(C)O)C1CCC2C3CC=C4CC(OS(=O)(=O)O)CCC4(C)C3CCC12C (centres unmarked) [Salt #6],Solubility in 0.9% NaCl,"[1]; 0.9% NaCl, room temperature, as free acid, ND = not detected, detection limit 0.7 μg/mL, 1440 min, listed as 25HC3S hydroxyethylpyrrolidinium",3 µg/mL
same,Solubility in 5% Dextrose,"[1]; room temperature, as free acid, LOD 0.0007 mg/mL, 1440 min",642 µg/mL
same,Solubility in 5% Dextrose,"[1]; room temperature, as free acid, ND = not detected, detection limit 0.7 μg/mL, 1440 min, listed as 25HC3S hydroxyethylpyrrolidinium",642 µg/mL
same,Solubility in acetonitrile (in words),"[1]; ACN, room temperature",relatively high solubility
same,Solubility in FaSSGF (in words),"[1]; FaSSGF, room temperature",high solubility
same,Solubility in FaSSGF,"[1]; FaSSGF, room temperature, as free acid, ND = not detected, detection limit 0.7 μg/mL, 1440 min, listed as 25HC3S hydroxyethylpyrrolidinium",10 µg/mL
same,Solubility in FaSSIF (in words),"[1]; FaSSIF, room temperature",high solubility
same,Solubility in FaSSIF,"[1]; FaSSIF, room temperature, as free acid, 1440 min, listed as 25HC3S hydroxyethylpyrrolidinium",161 µg/mL
same,Solubility in FaSSIF (in words),"[1]; FaSSIF, room temperature, listed as crystalline 25HC3S hydroxyethylpyrrolidinium",relatively high solubility
same,Solubility in FaSSIF,"[1]; Fasted State Simulated Intestinal Fluid, room temperature, as free acid, 1440 min",161 µg/mL
same,Solubility in FeSSIF (in words),[1]; room temperature,high solubility
same,Solubility in FeSSIF (in words),[1]; [6],relatively high solubility
same,Solubility in methanol (in words),[1]; room temperature,did not reach saturation
same,Solubility in ACN,"[1]; acetonitrile, room temperature, as free acid, 1440 min, listed as 25HC3S hydroxyethylpyrrolidinium",1200 µg/mL
same,Solubility in 5% dextrose (in words),[1]; room temperature,highest solubility
same,Solubility in 5% dextrose (in words),[1]; [6],relatively high solubility
same,Solubility in IPA,"[1]; isopropyl alcohol, room temperature, as free acid, 1440 min, listed as 25HC3S hydroxyethylpyrrolidinium",6700 µg/mL
same,Solubility in saline / 0.9% sodium chloride (in words),[1]; room temperature,highest solubility
same,Solubility in water (in words),"[1]; water, room temperature",highest solubility
same,Solubility in H2O,"[1]; water, room temperature, as free acid, ND = not detected, detection limit 0.7 μg/mL, 1440 min, listed as 25HC3S hydroxyethylpyrrolidinium",273 µg/mL
same,"Powder flowability, overall (in words)",[2]; listed as hydroxyethylpyrrolidinium,poorer flowability
same,Angle of Repose Rank Order,[2]; [7],15
same,Hausner Ratio Rank Order,[2]; [7],10
same,Overall Rank Order (Total Score),[2]; [7],25
same,Compressibility Index,[3]; [7],35
same,Hausner Ratio,[3]; [7],1.53
same,Decomposition temperature (DSC),[4]; listed as crystalline 25HC3S hydroxyethylpyrrolidinium,about 181 °C
CC(CCCC(C)(C)O)C1CCC2C3CC=C4CC(OS(=O)(=O)O)CCC4(C)C3CCC12C (centres unmarked) [Salt #13],Solubility in ethanol (in words),"[1]; EtOH, room temperature",did not reach saturation
same,Solubility in FaSSGF (in words),"[1]; FaSSGF, room temperature, listed as crystalline 25HC3S magnesium",low solubility
same,Solubility in FaSSGF,"[1]; Fasted State Simulated Gastric Fluid, pH 1.6, room temperature, as free acid, LOD 0.0007 mg/mL",no solubilized drug was detected
same,Solubility in methanol (in words),[1]; room temperature,did not reach saturation
same,Solubility in methanol (in words),[1]; [8],relatively high solubility
same,Solubility in saline / 0.9% sodium chloride (in words),[1]; [8],low solubility
same,"Powder flowability, overall (in words)",[2]; listed as magnesium,poorer flowability
same,Angle of Repose Rank Order,[2]; listed as 25HC3S magnesium,7
same,Hausner Ratio Rank Order,[2]; listed as 25HC3S magnesium,14
same,Overall Rank Order (Total Score),[2]; listed as 25HC3S magnesium,21
same,Compressibility Index,[3]; listed as 25HC3S magnesium,36
same,Hausner Ratio,[3]; listed as 25HC3S magnesium,1.56
same,Decomposition temperature (DSC),[4]; listed as crystalline 25HC3S magnesium,about 139 °C
